“Also recorded” adds a separate entry of the source.
Experiments:
[1] = test system: S. aureus strain USA300LAC; experiment: Fluorescence microscopy (DAPI/Nile Red) of membrane deformation; assay type: cell-based, Staphylococcus aureus
Text: Given the high lipophilic nature and membrane-compromising effects of JC-01-074, we wondered about the possibility that the alkyl chain of JC-01-074 could be incorporated into the phospholipid bilayer, thereby destabilizing the uniform packing of the membrane phospholipids and potentially resulting in “bleb formation”, as this had been reported before. To test this idea, we cultivated the S. aureus strain USA300LAC to the mid-log phase and treated the cells with the indicated concentrations of JC-01-074 and daptomycin (as a positive control), respectively. Samples were collected at 15 and 60 mins of treatment, washed twice, and resuspended in fresh PBS. Cells were then stained with 4′,6-diamidino-2-phenylindole (DAPI) and Nile Red for 10 min, respectively. DAPI is a nucleic acid stain that binds to DNA, while Nile Red is commonly used as an inner membrane stain to quantify lipids. The cells were then mounted onto a glass slide with 1% agarose and imaged at 63× magnification via inverted confocal laser scanning microscopy. […] To rule out the possibility that these blebs were transiently formed, we further imaged the cells exposed to JC-01-074 for 60 min. […] The smaller blebs formed may have extended over the incubation time, resulting in their fusion into large blebs.
Figure 5 JC-01-074 treatment rapidly induces deformations in the S. aureus plasma membrane as indicated by the white arrows. […] Cells were collected at the indicated time points and stained with DAPI (5 µg/mL) and Nile Red (5 µg/mL) for 10 min, following which cells were imaged on 1% agarose pads. Images are representatives of three biological replicates. Scale bar = 1.25 µm.
The overnight USA300LAC cultures were diluted into the TSB media to an O.D.600nm = 0.01 and incubated under shaking conditions at 37 °C until the mid-log phase (O.D.600nm = 0.3) was reached. […] The cells were then imaged on 1% agarose gel pads and via fluorescence microscopy using a Leica SP8 confocal microscope. […] Fluorescence was detected between the wavelengths of 500–560 nm, with an 8×- line averaging.

[2] = test system: S. aureus strain USA300LAC established biofilm; experiment: Biofilm eradication assay (crystal violet); assay type: cell-based, Staphylococcus aureus; settings: at or below 4× MIC, 24 h, in words
Procedure: The establishment of a bacterial biofilm usually begins with pathogen attachment to biotic and abiotic surfaces, and S. aureus is notorious for its ability to form biofilms on surfaces, such as implants and catheters, which presents a unique treatment challenge.
Overnight cultures of S. aureus strain USA300LAC were diluted into fresh TSB to an OD600nm = 0.001 and incubated aerobically at 37 °C until the mid-log phase. (A) To detect effects on biofilm formation, cultures were diluted to an OD600nm = 0.0001 in the presence and absence of JC-01-074 and vancomycin at concentrations of 0.5–4× MIC, respectively. (B) To detect effects on biofilm eradication, cultures were diluted to an OD600nm = 0.0001 and incubated under static conditions for 24 h, after which planktonic cells were removed, and the preformed biofilms were washed twice with PBS. […] Biofilm mass was quantified after 20 h via crystal violet staining. One-way ANOVA, Dunnett’s multiple-comparison test (* p < 0.05, ** p < 0.01); (n = 3, ±S.D.).
The overnight USA300LAC cultures were diluted 1000-fold into the TSB media and incubated under shaking conditions at 37 °C until the mid-log phase. […] After 24 h of incubation, biofilm eradication was assessed via CV staining at 595 nm in a Tecan 200 Infinite Pro microplate reader (Tecan, Morgan Hill, CA, USA).

SMILES: CCCCCCCCCC#Cc1cccc(O)n1 [JC-01-074]
- membrane morphology after 60 min ([1]; 0.5× and 1× MIC, 60 min, USA300LAC): formation of aberrant membrane blebs
- lowest concentration at which bleb formation was observed ([1]; USA300LAC plasma membrane, 0.5× MIC): 8 µg/mL
- earliest time at which bleb formation was observed ([1]; USA300LAC, after addition of compound): 15 min
- eradication of established biofilms [2]: has no effect once biofilms have been established; also recorded: no significant effects on the already established biofilms
